These results are taken from patent US20190060311A1, “COMPOSITIONS AND METHODS FOR TREATMENT OF VITILIGO” (ACLARIS THERAPEUTICS, INC., priority 2017, published 2019).

SMILES strings stand for the structures. Where a name gives a salt, the structure may show the parent alone.

Data set [1] relates to autoimmune destruction of melanocytes. To be noted: pilot studies; cited from earlier work.
Data set [2] relates to destruction of melanocytes. In words: Harris mouse model of vitiligo (adoptive transfer of TCR transgenic T cells), in-life vitiligo scoring. The class given is in vivo. The conditions noted are these: both doses (50 and 100 mg/kg), oral gavage QD, scored 5 weeks after initiation of dosing. From the text:
The primary driver of vitiligo is an autoimmune attack on melanocytes, the cells which give skin its color. The initiating event(s) for this autoimmune attack is unknown, however the key cell type driving the destruction of the melanocytes is the CD8+ cytolytic T cell (CTL). A major cytokine that drives the activation/function of these CTL is IFNy, whose receptor signals via JAK1 and JAK2. Drugs that block the function of JAK1 or JAK2 would be predicted to be efficacious in reversing the autoimmune destruction of melanocytes, and this has been confirmed with pilot studies using tofacitinib (an inhibitor of JAK3/JAK1/JAK2) and ruxolitinib (an inhibitor of JAK1/JAK2). The development of novel therapeutics for treatment of vitiligo would be facilitated by an animal model of disease that specifically recapitulates the key features of the disease (IFNγ CD8+ CTL driven destruction of melanocytes). Dr. John Harris of the University of Massachusetts Medical School has developed such a model. […] Attempted induction of disease is then accomplished using a proprietary method and is measured by the degree of melanocyte destruction. […] In FIG. 1, each symbol represents an individual animal, scored 5 weeks after initiation of dosing. Statistical significance was determined with the Student's T test.

Data set [3] has as its system non-segmental facial vitiligo. The experiment in a line: Open-label clinical trial, topical treatment of non-segmental facial vitiligo. Format: in vivo. The conditions noted are these: 0.46% (w/w) topical solution twice daily; as early as 4 weeks after initiating treatment. An excerpt:
Subjects with a clinical diagnosis of new onset or actively progressing non-segmental facial vitiligo or worsening of existing facial lesions within the past 6 months were enrolled in an open-label clinical trial and treated with a 0.46% (w/w) topical solution formulation of 5-((2-((4-fluoro-3-methoxy-5-methylphenyl)amino)-5-methylpyrimidin-4-yl)amino)benzo[d]oxazol-2(3H)-one hydrochloride applied twice daily for 24 weeks by the protocol-prescribed method.
It is anticipated that the treatment will be judged to be safe and tolerable.

Data set [4] in a line: Plasma drug levels after oral gavage in the mouse vitiligo model. Format: in vivo. To be noted: oral gavage QD, post dose.

With `N#CC[C@H](C1CCCC1)n1cc(-c2ncnc3[nH]ccc23)cn1` [ruxolitinib, (R)-3-(4-(7H-pyrrolo[2,3-d]pyrimidin-4-yl)-1H-pyrazol-1-yl)-3-cyclopentylpropanenitrile], the “efficacious in reversing the autoimmune destruction of melanocytes” value in data set [1] is “confirmed”.
With `COc1cc(Nc2ncc(C)c(Nc3ccc4oc(=O)[nH]c4c3)n2)cc(C)c1F` [5-((2-((4-fluoro-3-methoxy-5-methylphenyl)amino)-5-methylpyrimidin-4-yl)amino)benzo[d]oxazol-2(3H)-one hydrochloride], the “efficacy in the model (vitiligo score, FIG. 1)” value in data set [2] is “excellent efficacy”. Also, in data set [3], the “improvement of disease (pigmentation at lesion borders, repigmentation, Facial VASI index)” value is “early improvement in their disease”. Besides, the “time plasma drug levels were above the EC50 for blockade of IFNγ signaling” value in data set [4] (50 mg/kg) stood at 6 h; in data set [4] (100 mg/kg), 20 h.
For `C[C@@H]1CCN(C(=O)CC#N)C[C@@H]1N(C)c1ncnc2[nH]ccc12` [tofacitinib, 3-{(3R,4R)-4-methyl-3-[methyl-(7H-pyrrolo[2,3-d]pyrimidin-4-yl)-amino]-piperidin-1-yl}-3-oxo-propionitrile], the “efficacious in reversing the autoimmune destruction of melanocytes” value in data set [1] is “confirmed”.
